Several values for one entry are separate records, joined by “and”; a condition that tells them apart may be missing. Equal values may be shown once. Inconclusive results and toxic doses are left out.

This assay relates to BDF1 mice, intracerebral L1210 leukemia, survival T/C. Put plainly: NCI In Vivo Anticancer Drug Screen. Data for tumor model L1210 Leukemia (intracerebral) in B6D2F1 (BDF1) mice. The settings on record: endpoint: mean survival time, higher = longer survival. In short, it runs like this:
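Survival measured in treated and vehicle-control tumour-bearing mice; value = T/C.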

Where [1] appears, read: dose: 11.0 mg/kg/injection, schedule: Q01DX001 (ip), vehicle: other.
[2] abbreviates: dose: 12.0 mg/kg/injection, schedule: Q01DX001 (ip), vehicle: other.
[3] abbreviates: dose: 16.0 mg/kg/injection, schedule: Q01DX001 (ip), vehicle: other.
The mark [4] stands for this setting: dose: 24.0 mg/kg/injection, schedule: Q01DX001 (ip), vehicle: other.

Turning to `O=NN(CCCl)C(=O)NC1CCC(=O)NC1=O` (centres undefined), the T/C by setting is: (dose: 2.1 mg/kg/injection, schedule: Q01DX001 (ip), vehicle: other) 106 % of control and 116 % of control; (dose: 4.0 mg/kg/injection, schedule: Q01DX001 (ip), vehicle: other) 156 % of control and 226 % of control; (dose: 8.0 mg/kg/injection, schedule: Q01DX001 (ip), vehicle: other) 159 % of control and 161 % of control and 183 % of control; (dose: 8.0 mg/kg/injection, schedule: Q01DX001 (ip), vehicle: saline with Tween-80) 352 % of control; under setting [1], 251 % of control; under setting [2], 298 % of control and 327 % of control. In addition, the T/C (dose: 13.0 mg/kg/injection, schedule: Q01DX001 (ip), vehicle: saline with Tween-80) is 542 % of control; the T/C under setting [3] was 274 % of control and 328 % of control; the T/C (dose: 17.0 mg/kg/injection, schedule: Q01DX001 (ip), vehicle: other) was 389 % of control and 498 % of control; the T/C (dose: 20.0 mg/kg/injection, schedule: Q01DX001 (ip), vehicle: saline with Tween-80) is 625 % of control; the T/C (dose: 22.0 mg/kg/injection, schedule: Q01DX001 (ip), vehicle: other) is 251 % of control; the T/C under setting [4] was 238 % of control and 335 % of control. For the same compound, the T/C is 107 % of control (dose: 30.0 mg/kg/injection, schedule: Q01DX001 (ip), vehicle: saline with Tween-80); 297 % of control (dose: 33.0 mg/kg/injection, schedule: Q01DX001 (ip), vehicle: other); 287 % of control and 353 % of control (dose: 35.0 mg/kg/injection, schedule: Q01DX001 (ip), vehicle: other); 205 % of control (dose: 36.0 mg/kg/injection, schedule: Q01DX001 (ip), vehicle: other); 275 % of control (dose: 44.0 mg/kg/injection, schedule: Q01DX001 (ip), vehicle: other).
In the case of `O=C(NO)c1ccncc1`, the T/C runs as follows: (dose: 100.0 mg/kg/injection, schedule: Q01DX009 (ip), vehicle: water) 91 % of control; (dose: 200.0 mg/kg/injection, schedule: Q01DX009 (ip), vehicle: water) 92 % of control; (dose: 400.0 mg/kg/injection, schedule: Q01DX009 (ip), vehicle: water) 86 % of control; (dose: 600.0 mg/kg/injection, schedule: Q01DX009 (ip), vehicle: water) 89 % of control.
`CN(Cc1cnc2nc(N[Si](C)(C)C)nc(N[Si](C)(C)C)c2n1)c1ccc(C(=O)NC(CCC(=O)O[Si](C)(C)C)C(=O)O[Si](C)(C)C)cc1` (centres undefined): the T/C was 118 % of control (dose: 1.0 mg/kg/injection, schedule: Q01DX009 (ip), vehicle: Klucel (hydroxypropylcellulose) (HPC)); 173 % of control (dose: 2.0 mg/kg/injection, schedule: Q01DX009 (ip), vehicle: saline); 110 % of control (dose: 4.0 mg/kg/injection, schedule: Q01DX009 (ip), vehicle: Klucel (hydroxypropylcellulose) (HPC)); 93 % of control (dose: 4.0 mg/kg/injection, schedule: Q01DX009 (ip), vehicle: saline).
Take `CC(C)(C)C1CCC(NC(=O)N(CCCl)N=O)CC1` (centres undefined): the T/C runs as follows: (dose: 177.0 mg/kg/injection, schedule: Q01DX001 (ip), vehicle: other) 170 % of control; (dose: 250.0 mg/kg/injection, schedule: Q01DX001 (ip), vehicle: other) 156 % of control and 158 % of control; (dose: 354.0 mg/kg/injection, schedule: Q01DX001 (ip), vehicle: other) 247 % of control; (dose: 375.0 mg/kg/injection, schedule: Q01DX001 (ip), vehicle: other) 196 % of control and 210 % of control; (dose: 472.0 mg/kg/injection, schedule: Q01DX001 (ip), vehicle: other) 155 % of control; (dose: 500.0 mg/kg/injection, schedule: Q01DX001 (ip), vehicle: other) 186 % of control and 201 % of control. For the same compound, the T/C by setting is: (dose: 708.0 mg/kg/injection, schedule: Q01DX001 (ip), vehicle: other) 86 % of control; (dose: 750.0 mg/kg/injection, schedule: Q01DX001 (ip), vehicle: other) 152 % of control.
Regarding `CNC(=O)NC(=O)N(C)N=O`, the T/C was 105 % of control (dose: 15.0 mg/kg/injection, schedule: Q01DX001 (ip), vehicle: carboxymethylcellulose (CMC)); 105 % of control (dose: 22.6 mg/kg/injection, schedule: Q01DX001 (ip), vehicle: carboxymethylcellulose (CMC)); 98 % of control (dose: 34.0 mg/kg/injection, schedule: Q01DX001 (ip), vehicle: carboxymethylcellulose (CMC)); 112 % of control (dose: 51.0 mg/kg/injection, schedule: Q01DX001 (ip), vehicle: carboxymethylcellulose (CMC)); 109 % of control and 111 % of control (dose: 77.0 mg/kg/injection, schedule: Q01DX001 (ip), vehicle: carboxymethylcellulose (CMC)); 91 % of control (dose: 117.0 mg/kg/injection, schedule: Q01DX001 (ip), vehicle: carboxymethylcellulose (CMC)). Under “dose: 175.0 mg/kg/injection, schedule: Q01DX001 (ip), vehicle: carboxymethylcellulose (CMC)”, the T/C was 87 % of control.
For `S=C=NCCc1ccccc1`, the T/C is, setting by setting: (dose: 12.5 mg/kg/injection, schedule: Q01DX009 (ip), vehicle: saline with Tween-80) 343 % of control; (dose: 25.0 mg/kg/injection, schedule: Q01DX009 (ip), vehicle: saline with Tween-80) 93 % of control; (dose: 50.0 mg/kg/injection, schedule: Q01DX009 (ip), vehicle: saline with Tween-80) 95 % of control.
With `CC(=O)Nc1ccc2nc3ccc(NC(C)=O)cc3[n+](-c3ccccc3)c2c1`, the T/C is 104 % of control (dose: 37.5 mg/kg/injection, schedule: Q01DX Z (ip), vehicle: carboxymethylcellulose (CMC)); 98 % of control (dose: 50.0 mg/kg/injection, schedule: Q01DX Z (ip), vehicle: carboxymethylcellulose (CMC)); 103 % of control (dose: 75.0 mg/kg/injection, schedule: Q01DX Z (ip), vehicle: carboxymethylcellulose (CMC)); 101 % of control (dose: 100.0 mg/kg/injection, schedule: Q01DX Z (ip), vehicle: carboxymethylcellulose (CMC)); 107 % of control (dose: 125.0 mg/kg/injection, schedule: Q01DX Z (ip), vehicle: carboxymethylcellulose (CMC)); 97 % of control (dose: 250.0 mg/kg/injection, schedule: Q01DX Z (ip), vehicle: carboxymethylcellulose (CMC)).
For the compound `O=P(NC12CC3CC(CC(C3)C1)C2)(N1CC1)N1CC1`, the T/C reads like this: (dose: 9.0 mg/kg/injection, schedule: Q04DX003 (ip), vehicle: Klucel (hydroxypropylcellulose) (HPC)) 112 % of control; (dose: 12.0 mg/kg/injection, schedule: Q01DX001 (ip), vehicle: Klucel (hydroxypropylcellulose) (HPC)) 109 % of control; (dose: 18.0 mg/kg/injection, schedule: Q01DX001 (ip), vehicle: Klucel (hydroxypropylcellulose) (HPC)) 117 % of control.
Turning to `O=NN(CCF)C(=O)NC1CCS(=O)(=O)CC1`, the T/C was 111 % of control (dose: 2.5 mg/kg/injection, schedule: Q01DX001 (ip), vehicle: other); 108 % of control and 114 % of control (dose: 2.9 mg/kg/injection, schedule: Q01DX001 (ip), vehicle: other); 118 % of control (dose: 3.75 mg/kg/injection, schedule: Q01DX001 (ip), vehicle: other); 181 % of control (dose: 4.8 mg/kg/injection, schedule: Q01DX001 (oral), vehicle: other); 124 % of control (dose: 5.0 mg/kg/injection, schedule: Q01DX001 (ip), vehicle: other); 121 % of control (dose: 6.0 mg/kg/injection, schedule: Q01DX001 (ip), vehicle: other). The T/C (dose: 7.0 mg/kg/injection, schedule: Q01DX001 (ip), vehicle: other) was 165 % of control; the T/C (dose: 7.5 mg/kg/injection, schedule: Q01DX001 (ip), vehicle: other) was 163 % of control; the T/C (dose: 10.0 mg/kg/injection, schedule: Q01DX001 (ip), vehicle: other) is 183 % of control; the T/C under setting [1] is 191 % of control; the T/C (dose: 11.0 mg/kg/injection, schedule: Q01DX001 (oral), vehicle: other) was 200 % of control and 315 % of control; the T/C under setting [2] was 150 % of control and 214 % of control. The T/C reads like this: (dose: 15.0 mg/kg/injection, schedule: Q01DX001 (ip), vehicle: other) 202 % of control; under setting [3], 284 % of control; (dose: 20.0 mg/kg/injection, schedule: Q01DX001 (ip), vehicle: other) 322 % of control; (dose: 21.0 mg/kg/injection, schedule: Q01DX001 (oral), vehicle: other) 477 % of control and 662 % of control; under setting [4], 341 % of control and 410 % of control and 463 % of control; (dose: 30.0 mg/kg/injection, schedule: Q01DX001 (ip), vehicle: other) 348 % of control. Moreover, the T/C (dose: 40.0 mg/kg/injection, schedule: Q01DX001 (ip), vehicle: other) is 305 % of control; the T/C (dose: 40.0 mg/kg/injection, schedule: Q01DX001 (oral), vehicle: other) is 456 % of control and 486 % of control; the T/C (dose: 48.0 mg/kg/injection, schedule: Q01DX001 (ip), vehicle: other) was 354 % of control; the T/C (dose: 80.0 mg/kg/injection, schedule: Q01DX001 (oral), vehicle: other) is 86 % of control.

Values taken from PubChem BioAssay AID252 (DTP/NCI, 2004).
